Measured values published in paper PMC7344947, “Phytochemicals and Enzyme Inhibitory Capacities of the Methanolic Extracts from the Italian Apple Cultivar Mela Rosa dei Monti Sibillini” (Pharmaceuticals, 2020).

Molecular target: T1, α-Glucosidase from Saccharomyces cerevisiae (Saccharomyces cerevisiae, UniProt P53341)
T1 construct: purchased Sigma-Aldrich (Madrid, Spain)
Assay: α-Glucosidase inhibition assay (pNPG, absorbance 405 nm)
Assay type: biochemical
Conditions: 1 mg/mL
Procedure: α-Glucosidase inhibition assay was performed following the previous method. Each 96-well microplate contained: 50 μL apple extract or the reference at different concentration and 100 μL of α-GLU (1U/mL) in phosphate buffer (pH 6.9). After 10 min, 50 μL of PNPG (50 μL) were added and incubated for 20 min at 37 °C. The absorbance was read at 405 nm. The percentage inhibition of α-glucosidase was calculated using the following formula:% inhibition = [(Abscontrol − AbsSample)/Abscontrol] × 100(1)

T1 sequence (P53341 whole entry): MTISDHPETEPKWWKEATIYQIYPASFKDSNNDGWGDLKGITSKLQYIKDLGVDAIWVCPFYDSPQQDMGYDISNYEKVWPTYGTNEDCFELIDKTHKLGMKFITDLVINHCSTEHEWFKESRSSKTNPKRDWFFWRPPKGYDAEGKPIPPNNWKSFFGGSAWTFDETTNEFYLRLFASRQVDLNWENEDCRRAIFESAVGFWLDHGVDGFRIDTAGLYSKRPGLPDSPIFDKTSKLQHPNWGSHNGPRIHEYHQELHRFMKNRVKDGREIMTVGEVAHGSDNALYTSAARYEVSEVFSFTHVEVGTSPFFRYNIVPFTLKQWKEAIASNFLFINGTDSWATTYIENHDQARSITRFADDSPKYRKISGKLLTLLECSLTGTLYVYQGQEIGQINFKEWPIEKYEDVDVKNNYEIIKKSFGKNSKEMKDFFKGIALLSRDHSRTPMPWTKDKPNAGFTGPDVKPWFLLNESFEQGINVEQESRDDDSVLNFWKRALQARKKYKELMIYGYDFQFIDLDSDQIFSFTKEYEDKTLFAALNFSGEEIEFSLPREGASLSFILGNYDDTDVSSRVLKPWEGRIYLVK

`C[C@H]1O[C@H](O[C@H]2[C@H](O)[C@@H](O)[C@@H](O[C@H]3[C@H](O)[C@@H](O)C(O)O[C@@H]3CO)O[C@@H]2CO)[C@H](O)[C@@H](O)[C@@H]1N[C@H]1C=C(CO)[C@@H](O)[C@H](O)[C@H]1O` (stereo partly shown) [Acarbose] was tested, and the inhibition at 1000 µg/mL was 100%.
